Test results from US20060083680A1, “Diphenyl ether derivatives and their use for imaging serotonin transporters” (The Trustees of the University of Pennsylvania, priority 2004, published 2006).
Several values for one entry are separate records, joined by “and”; a condition that tells them apart may be missing. Identical values can stand only once. Entries after “also recorded” stand apart in the source; their conditions may differ.

Key:
SERT binding sites = target: T1, SERT binding sites (Rattus norvegicus, UniProt P31652); assay: Ex vivo autoradiography of rat brain sections; assay type: in vivo, rats; conditions: rats, ex vivo after i.v. injection
T1 construct: from tissue; host or cells: rat brain in vivo (hypothalamus, cortex, striatum, hippocampus, cerebellum); ex vivo brain sections

[1] = Biodistribution in rats after iv injection (organs); assay type: in vivo; conditions: for Biodistribution Blood / Biodistribution Brain / Biodistribution Heart / Biodistribution Kidney / Biodistribution Liver / Biodistribution Lung / Biodistribution Muscle / Biodistribution Skin / Biodistribution Spleen / Biodistribution Thyroid: iv
Experimental: Biodistribution in rats: Three rats per group were used for each biodistribution study. While under ether anesthesia, 0.2 mL of a saline solution containing 10 μCi of radioactive tracer was injected into the femoral vein. The rats were sacrificed at the time indicated by cardiac excision while under ether anesthesia. Organs of interest were removed and weighed, and the radioactivity was counted. The percent dose per organ was calculated by a comparison of the tissue counts to counts of 1% of the initial dose (100 times diluted aliquots of the injected material) measured at the same time.

T1 sequence (P31652 whole entry): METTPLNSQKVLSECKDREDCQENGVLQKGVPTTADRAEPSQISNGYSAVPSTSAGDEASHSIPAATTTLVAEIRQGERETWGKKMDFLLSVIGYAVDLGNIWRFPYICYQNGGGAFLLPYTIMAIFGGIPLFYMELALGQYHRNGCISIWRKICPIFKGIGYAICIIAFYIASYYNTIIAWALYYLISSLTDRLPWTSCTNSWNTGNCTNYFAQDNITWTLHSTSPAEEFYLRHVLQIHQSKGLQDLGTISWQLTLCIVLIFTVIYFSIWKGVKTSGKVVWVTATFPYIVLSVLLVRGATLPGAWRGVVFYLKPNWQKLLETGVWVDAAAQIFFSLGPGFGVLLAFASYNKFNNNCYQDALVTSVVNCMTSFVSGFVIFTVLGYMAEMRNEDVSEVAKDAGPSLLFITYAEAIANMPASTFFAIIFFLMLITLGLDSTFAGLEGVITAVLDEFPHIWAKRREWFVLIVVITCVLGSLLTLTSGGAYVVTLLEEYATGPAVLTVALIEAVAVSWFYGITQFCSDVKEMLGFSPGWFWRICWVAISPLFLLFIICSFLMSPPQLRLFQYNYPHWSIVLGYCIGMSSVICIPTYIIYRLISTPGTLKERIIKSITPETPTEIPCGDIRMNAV

Structure (SMILES): CN(C)Cc1ccccc1Oc1ccc([125I])cc1N [[^125I]4, [^125I][^123I]2-(2-(Dimethylaminomethyl)phenoxy)-5-iodophenylamine]
- regional distribution pattern in brain (SERT binding sites): distinctive distribution pattern in the brain, which reflected regional distribution of SERT binding sites; also recorded: excellent regional distribution pattern consistent with known SERT localization
- brain uptake ([1]; 2 min post-injection): 1.77 % dose and 1.77±0.07 % dose
- Biodistribution Blood ([1]; 2 min): 5.75 ± 0.54 % dose/organ
- Biodistribution Brain ([1]; 2 min): 1.77 ± 0.07 % dose/organ
- Biodistribution Heart ([1]; 2 min): 1.51 ± 0.13 % dose/organ
- Biodistribution Kidney ([1]; 2 min): 4.27 ± 0.90 % dose/organ
- Biodistribution Liver ([1]; 2 min): 5.71 ± 0.88 % dose/organ
- Biodistribution Lung ([1]; 2 min): 17.2 ± 2.32 % dose/organ
- Biodistribution Muscle ([1]; 2 min): 25.9 ± 4.82 % dose/organ
- Biodistribution Skin ([1]; 2 min): 4.45 ± 0.52 % dose/organ
- Biodistribution Spleen ([1]; 2 min): 0.44 ± 0.08 % dose/organ
- Biodistribution Thyroid ([1]; 2 min): 0.10 ± 0.02 % dose/organ
- Biodistribution Blood ([1]; 30 min): 4.56 ± 0.20 % dose/organ
- Biodistribution Brain ([1]; 30 min): 2.12 ± 0.15 % dose/organ
- Biodistribution Heart ([1]; 30 min): 0.32 ± 0.04 % dose/organ
- Biodistribution Kidney ([1]; 30 min): 2.67 ± 0.48 % dose/organ
- Biodistribution Liver ([1]; 30 min): 7.10 ± 0.66 % dose/organ
- Biodistribution Lung ([1]; 30 min): 3.56 ± 0.96 % dose/organ
- Biodistribution Muscle ([1]; 30 min): 18.1 ± 0.55 % dose/organ
- Biodistribution Skin ([1]; 30 min): 11.3 ± 0.78 % dose/organ
- Biodistribution Spleen ([1]; 30 min): 0.84 ± 0.05 % dose/organ
- Biodistribution Thyroid ([1]; 30 min): 0.15 ± 0.04 % dose/organ
- Biodistribution Blood ([1]; 60 min): 3.89 ± 0.28 % dose/organ
- Biodistribution Brain ([1]; 60 min): 1.74 ± 0.08 % dose/organ
- Biodistribution Heart ([1]; 60 min): 0.20 ± 0.01 % dose/organ
- Biodistribution Kidney ([1]; 60 min): 1.67 ± 0.21 % dose/organ
- Biodistribution Liver ([1]; 60 min): 5.79 ± 0.70 % dose/organ
- Biodistribution Lung ([1]; 60 min): 1.79 ± 0.06 % dose/organ
- Biodistribution Muscle ([1]; 60 min): 12.9 ± 0.84 % dose/organ
- Biodistribution Skin ([1]; 60 min): 13.9 ± 1.00 % dose/organ
- Biodistribution Spleen ([1]; 60 min): 0.47 ± 0.02 % dose/organ
- Biodistribution Thyroid ([1]; 60 min): 0.41 ± 0.11 % dose/organ
- Biodistribution Blood ([1]; 120 min): 3.15 ± 0.44 % dose/organ
- Biodistribution Brain ([1]; 120 min): 1.08 ± 0.06 % dose/organ
- Biodistribution Heart ([1]; 120 min): 0.13 ± 0.01 % dose/organ
- Biodistribution Kidney ([1]; 120 min): 1.24 ± 0.15 % dose/organ
- Biodistribution Liver ([1]; 120 min): 4.90 ± 0.38 % dose/organ
- Biodistribution Lung ([1]; 120 min): 0.88 ± 0.04 % dose/organ
- Biodistribution Muscle ([1]; 120 min): 9.18 ± 0.65 % dose/organ
- Biodistribution Skin ([1]; 120 min): 12.5 ± 2.14 % dose/organ
- Biodistribution Spleen ([1]; 120 min): 0.27 ± 0.01 % dose/organ
- Biodistribution Thyroid ([1]; 120 min): 0.96 ± 0.06 % dose/organ
- Biodistribution Blood ([1]; 240 min): 3.12 ± 0.32 % dose/organ
- Biodistribution Brain ([1]; 240 min): 0.33 ± 0.02 % dose/organ
- Biodistribution Heart ([1]; 240 min): 0.08 ± 0.02 % dose/organ
- Biodistribution Kidney ([1]; 240 min): 0.61 ± 0.09 % dose/organ
- Biodistribution Liver ([1]; 240 min): 3.52 ± 0.20 % dose/organ
- Biodistribution Lung ([1]; 240 min): 0.37 ± 0.03 % dose/organ
- Biodistribution Muscle ([1]; 240 min): 6.27 ± 0.06 % dose/organ
- Biodistribution Skin ([1]; 240 min): 12.6 ± 0.48 % dose/organ
- Biodistribution Spleen ([1]; 240 min): 0.13 ± 0.02 % dose/organ
- Biodistribution Thyroid ([1]; 240 min): 2.34 ± 1.16 % dose/organ
- Biodistribution Blood ([1]; 6 hrs): 3.29 ± 0.27 % dose/organ
- Biodistribution Brain ([1]; 6 hrs): 0.11 ± 0.01 % dose/organ
- Biodistribution Heart ([1]; 6 hrs): 0.08 ± 0.00 % dose/organ
- Biodistribution Kidney ([1]; 6 hrs): 0.55 ± 0.07 % dose/organ
- Biodistribution Liver ([1]; 6 hrs): 3.59 ± 0.23 % dose/organ
- Biodistribution Lung ([1]; 6 hrs): 0.25 ± 0.01 % dose/organ
- Biodistribution Muscle ([1]; 6 hrs): 5.01 ± 0.42 % dose/organ
- Biodistribution Skin ([1]; 6 hrs): 15.5 ± 1.50 % dose/organ
- Biodistribution Spleen ([1]; 6 hrs): 0.11 ± 0.01 % dose/organ
- Biodistribution Thyroid ([1]; 6 hrs): 2.68 ± 0.66 % dose/organ
- Biodistribution Blood ([1]; 11 hrs): 2.52 ± 0.47 % dose/organ
- Biodistribution Brain ([1]; 11 hrs): 0.02 ± 0.00 % dose/organ
- Biodistribution Heart ([1]; 11 hrs): 0.06 ± 0.00 % dose/organ
- Biodistribution Kidney ([1]; 11 hrs): 0.40 ± 0.10 % dose/organ
- Biodistribution Liver ([1]; 11 hrs): 2.64 ± 0.19 % dose/organ
- Biodistribution Lung ([1]; 11 hrs): 0.16 ± 0.00 % dose/organ
- Biodistribution Muscle ([1]; 11 hrs): 4.01 ± 0.85 % dose/organ
- Biodistribution Skin ([1]; 11 hrs): 10.9 ± 4.62 % dose/organ
- Biodistribution Spleen ([1]; 11 hrs): 0.09 ± 0.01 % dose/organ
- Biodistribution Thyroid ([1]; 11 hrs): 5.15 ± 1.49 % dose/organ
- Biodistribution Blood ([1]; 24 hrs): 0.70 ± 0.06 % dose/organ
- Biodistribution Brain ([1]; 24 hrs): 0.01 ± 0.00 % dose/organ
- Biodistribution Heart ([1]; 24 hrs): 0.02 ± 0.00 % dose/organ
- Biodistribution Kidney ([1]; 24 hrs): 0.17 ± 0.02 % dose/organ
